{"source": "patent US8445207B2", "about": "“Genes based on thalidomide, valproic acid and methotrexate treatment for screening of drug inducing teratogenicity and screening method using thereof” (priority 2009, dated 2013)", "test_system": "JEG-3 (human placental choriocarcinoma cell line)", "assay": "Oligo microarray gene expression in drug-treated JEG-3 (Cy5 treated / Cy3 control)", "assay_type": "cell-based", "details": "treated at IC30, up-regulated gene", "experimental": "Thalidomide, valproic acid, and methotrexate were treated to human placental choriocarcinoma cell line at the concentrations determined above (Inhibition concentration: the concentration that can kill approximately 30% of the total cells, that is the concentration of 70% viability, IC30). mRNA was extracted from the drug treated cell line, followed by synthesis of cDNA which was labeled with Cy5. The non-treated control was labeled with Cy3. The fluorescence labeled cDNA was hybridized with 41K (thalidomide), 44K (valproic acid, methotrexate) human whole genome oligomicroarray chips (Agilent, USA), followed by fluorescent image scanning to analyze gene expression patterns (see FIG. 4). Volcano Plot of each substance was also attached. Y axis indicates probability (generally converted by −log 10). X axis indicates differential expression, which is presented by log-ratio.\nTotal RNA was separated from the treated cell by using trizol reagent (Invitrogen Life Technologies, USA) according to the manufacture's instructions, followed by purification using RNeasy mini kit (Qiagen, USA). Genomic DNA was eliminated during RNA purification using RNase-free DNase set (Qiagen, USA).\n30 μg of the total RNA obtained above and 2 μg (1 μg/μl) of oligo (dT) primer were mixed, followed by reaction at 65° C. for 10 minutes. Annealing was performed in ice right after the reaction. Reagents were prepared as shown in Table 1 for reverse transcription of the annealed RNA.\nThe total RNA separated from the control group JEG-3 cells was labeled with Cy3-dUTP (green) and the total RNA separated from the experiment group JEG-3 cells treated with thalidomide, valproic acid and methotrexate was labeled with Cy5-dUTP (red). At this time, the two samples were mixed and purified by Microcon YM-30 column (Millipore, USA).\nHybridization and washing were performed by the manufacturer's (GenoCheck, Korea) instructions. Particularly, hybridization was performed in a 62° C. oven for 12 hours. As a DNA microarray chip, 44 k whole human genome oligo microarray (Agilent, USA) was used. After washing (2 minutes with 2×SSC/0.1% SDS, three minutes with 1×SSC, 2 minutes with 0.2×SSC), the slide was dried by centrifugation at 800 rpm for 3 minutes.\nHybridization image on the slide was scanned with Genepix 4000B (Axon Instruments, USA). Fluorescence image of the chip on which non-hybridized genes had been washed out was obtained by using laser fluorescence scanner. Green fluorescence image indicates the activity of gene specifically expressed in the control group and red fluorescence image indicates the activity of gene specifically expressed in the experimental group. […] Scanned image was analyzed by using GenePix 4.1 software (Axon Instruments, USA) to calculate gene expression rate.", "key": {"[1]": {"details": "(j) Response to oxidative stress"}, "[2]": {"details": "(k) common gene which has no function"}}, "data": [{"smiles": "CCCC(CCC)C(=O)O", "note": "[VPA, valproic acid]", "values": [{"measurement": "Ratio of intermediate value, gene GSTM3 (NM_000849, GLUTATHION E S-TRANSFERASE M3 (BRAIN))", "setting": "(h) Nervous system development", "result": 3.69}, {"measurement": "Ratio of intermediate value, gene HEYL (NM_014571, HAIRY/ENHANCER-OF-SPLIT RELATED WITH YRPW MOTIF-LIKE)", "setting": "(h) Nervous system development", "result": 2.13}, {"measurement": "Ratio of intermediate value, gene IRS2 (NM_003749, INSULIN RECEPTOR SUBSTRATE 2)", "setting": "(h) Nervous system development", "result": 2.09}, {"measurement": "Ratio of intermediate value, gene KCNQ2 (NM_172109, POTASSIUM VOLTAGE-GATED CHANNEL, KQT-LIKE SUBFAMILY, MEMBER 2)", "setting": "(h) Nervous system development", "result": 4.41}, {"measurement": "Ratio of intermediate value, gene KDELC1 (NM_015831, ACETYLCHOLINESTERASE (YT BLOOD GROUP))", "setting": "(h) Nervous system development", "result": 2.47}, {"measurement": "Ratio of intermediate value, gene KIF5C (AB011103, KINESIN HEAVY CHAIN NEURON-SPECIFIC 2)", "setting": "(h) Nervous system development", "result": 11.94}, {"measurement": "Ratio of intermediate value, gene MAPT (NM_016835, MICROTUBULE-ASSOCIATED PROTEIN TAU)", "setting": "(h) Nervous system development", "result": 3.18}, {"measurement": "Ratio of intermediate value, gene MYLIP (NM_013262, MYOSIN REGULATORY LIGHT CHAIN INTERACTING PROTEIN)", "setting": "(h) Nervous system development", "result": 2.88}, {"measurement": "Ratio of intermediate value, gene NRXN3 (NM_004796, NEUREXIN 3)", "setting": "(h) Nervous system development", "result": 2.25}, {"measurement": "Ratio of intermediate value, gene PPIL6 (NM_000115, ENDOTHELIN RECEPTOR TYPE B)", "setting": "(h) Nervous system development", "result": 3.13}, {"measurement": "Ratio of intermediate value, gene PRPS1 (NM_002764, PHOSPHORIBOSYL PYROPHOSPHATE SYNTHETASE 1)", "setting": "(h) Nervous system development", "result": 2.12}, {"measurement": "Ratio of intermediate value, gene SCG10; SGC10; SCGN10 (S82024, STATHMIN-LIKE 2)", "setting": "(h) Nervous system development", "result": 2.41}, {"measurement": "Ratio of intermediate value, gene SDFR1 (NM_012428, NEURO-PLASTIN)", "setting": "(h) Nervous system development", "result": 2.26}, {"measurement": "Ratio of intermediate value, gene SELM (BX537571, FYN ONCOGENE RELATED TO SRC, FGR, YES)", "setting": "(h) Nervous system development", "result": 3.34}, {"measurement": "Ratio of intermediate value, gene SEMA6C (NM_030913, SEMA DOMAIN, TRANSMEMBRANE DOMAIN (TM), AND CYTOPLASMIC DOMAIN, (SEMAPHORIN) 6C)", "setting": "(h) Nervous system development", "result": 2.77}, {"measurement": "Ratio of intermediate value, gene TUBB2 (NM_001069, TUBULIN, BETA 2A)", "setting": "(h) Nervous system development", "result": 3.11}, {"measurement": "Ratio of intermediate value, gene TWSG1 (NM_020648, TWISTED GASTRULATION HOMOLOG 1 (DROSOPHILA))", "setting": "(h) Nervous system development", "result": 2.56}, {"measurement": "Ratio of intermediate value, gene GCLM (CR598364, GLUTAMATE-CYSTEINE LIGASE, MODIFIER SUBUNIT)", "setting": "(i) Neuron apoptosis", "result": 2.61}, {"measurement": "Ratio of intermediate value, gene GTF2A1 (BC028148, TUMOR NECROSIS FACTOR (TNF SUPERFAMILY, MEMBER 2))", "setting": "(i) Neuron apoptosis", "result": 2.15}, {"measurement": "Ratio of intermediate value, gene HPCAL4 (BC028066)", "setting": "(i) Neuron apoptosis", "result": 6.07}, {"measurement": "Ratio of intermediate value, gene KRAS2 (BC029545, V-HA-RAS HARVEY RAT SARCOMA VIRAL ONCOGENE HOMOLOG)", "setting": "(i) Neuron apoptosis", "result": 2.62}, {"measurement": "Ratio of intermediate value, gene LIG4 (NM_002312, LIGASE IV, DNA, ATP-DEPENDENT)", "setting": "(i) Neuron apoptosis", "result": 2.19}, {"measurement": "Ratio of intermediate value, gene DKFZp761B1514 (AK025742, UNCOUPLING PROTEIN 2 (MITOCHONDRIAL, PROTON CARRIER))", "setting": "[1]", "result": 2.39}, {"measurement": "Ratio of intermediate value, gene DYRK3 (BC030009, SELENOPROTEIN P, PLASMA, 1)", "setting": "[1]", "result": 5.57}, {"measurement": "Ratio of intermediate value, gene FTH1 (BC006523, SERUM/GLUCOCORTICOID REGULATED KINASE 2)", "setting": "[1]", "result": 2.13}, {"measurement": "Ratio of intermediate value, gene GPX3 (NM_002084, GLUTATHIONE PEROXIDASE 3 (PLASMA))", "setting": "[1]", "result": 2.10}, {"measurement": "Ratio of intermediate value, gene HMOX1 (NM_002133, HEME OXYGENASE (DECYCLING) 1)", "setting": "[1]", "result": 2.85}, {"measurement": "Ratio of intermediate value, gene MOSPD1 (H18681, SULFIREDOXIN 1 HOMOLOG (S. CEREVISIAE))", "setting": "[1]", "result": 3.56}, {"measurement": "Ratio of intermediate value, gene RPL4 (AK094940, GLUTAMATE-CYSTEINE LIGASE, CATALYTIC SUBUNIT)", "setting": "[1]", "result": 2.49}, {"measurement": "Ratio of intermediate value, gene TXNIP (NM_006472, THIOREDOXIN INTERACTING PROTEIN)", "setting": "[1]", "result": 4.52}, {"measurement": "Ratio of intermediate value, gene ATP10B (AB018258, ATPase, Class V, type 10B)", "setting": "[2]", "result": 2.03}, {"measurement": "Ratio of intermediate value, gene BQ186674 (cDNA clone UI-E-EJ1-ajr-f-10-0-UI, Hypothetical gene supported by AF086204)", "setting": "[2]", "result": 2.79}, {"measurement": "Ratio of intermediate value, gene BX111592 (Transcribed locus, moderately similar to XP_066443.6 PREDICTED: similar to paraneoplastic antigen like 6A)", "setting": "[2]", "result": 1.50}, {"measurement": "Ratio of intermediate value, gene CGA (NM_000735, Glycoprotein hormones, alpha polypeptide)", "setting": "[2]", "result": 2.14}, {"measurement": "Ratio of intermediate value, gene COBLL1 (BX649112, COBL-like 1)", "setting": "[2]", "result": 1.52}, {"measurement": "Ratio of intermediate value, gene CYP19A1 (AK023571, Cytochrome P450, family 19, subfamily A, polypeptide 1)", "setting": "[2]", "result": 1.78}, {"measurement": "Ratio of intermediate value, gene FLJ11017 (AK001879, Hypothetical protein FLJ11017)", "setting": "[2]", "result": 1.87}, {"measurement": "Ratio of intermediate value, gene GLCCI1 (AK126731, Glucocorticoid induced transcript 1)", "setting": "[2]", "result": 2.27}, {"measurement": "Ratio of intermediate value, gene KIAA0310 (AB002308, KIAA0310)", "setting": "[2]", "result": 1.59}, {"measurement": "Ratio of intermediate value, gene MGC27016 (AK125877, Hypothetical protein MGC27016)", "setting": "[2]", "result": 2.62}, {"measurement": "Ratio of intermediate value, gene NCOA3 (NM_181659, Nuclear receptor coactivator 3)", "setting": "[2]", "result": 1.62}, {"measurement": "Ratio of intermediate value, gene RGS2 (BC042755, Regulator of G-protein signalling 2, 24 kDa)", "setting": "[2]", "result": 3.04}, {"measurement": "Ratio of intermediate value, gene SIAT7A (BC063830, ST6 (alpha-N-acetyl-neuraminyl-2,3-beta-galactosyl-1,3)-N-acetylgalactosaminide alpha-2,6-sialyltransferase 1)", "setting": "[2]", "result": 1.69}, {"measurement": "Ratio of intermediate value, gene SIAT8D (NM_005668, ST8 alpha-N-acetyl-neuraminide alpha-2,8-sialyltransferase 4)", "setting": "[2]", "result": 1.79}, {"measurement": "Ratio of intermediate value, gene SLC7A8 (Y18483, Solute carrier family 7 (cationic amino acid transporter, y+ system), member 8)", "setting": "[2]", "result": 2.48}, {"measurement": "Ratio of intermediate value, gene SLC40A1 (AK023574, Solute carrier family 40 (iron-regulated transporter), member 1)", "setting": "[2]", "result": 1.70}, {"measurement": "Ratio of intermediate value, gene TFCP2L4 (BC036890, Grainyhead-like 3 (Drosophila))", "setting": "[2]", "result": 3.12}, {"measurement": "Ratio of intermediate value, gene TTF2 (AB209845, Transcription termination factor, RNA polymerase II)", "setting": "[2]", "result": 1.81}, {"measurement": "Ratio of intermediate value, gene TUBB3 (AK122757, Tubulin, beta 3)", "setting": "[2]", "result": 1.70}, {"measurement": "Ratio of intermediate value, gene TncRNA (AF001893, Trophoblast-derived noncoding RNA)", "setting": "[2]", "result": 3.61}]}]}
